# Publication PMC4532999 (Scientific Reports, 2015)
# Positions of bridges follow the written chain, without caps; N, C: chain ends. Non-standard residues stand in square brackets, D forms with d. Residues, ends and D or L forms follow the SMILES beside them. No end group written: not given here. pY = N[C@@H](Cc1ccc(OP(=O)(O)O)cc1)C(=O)O
# Assays:
# Abl kinase = Abl kinase (Homo sapiens, UniProt P00519); test: BacKin assay, inhibition of phosphorylation of abltide displayed on E. coli; format: biochemical; conditions: 32 μM peptide, Abl kinase 0.2 U/mL, 37 °C, 30 min
# Sequence of Abl kinase (P00519 whole entry): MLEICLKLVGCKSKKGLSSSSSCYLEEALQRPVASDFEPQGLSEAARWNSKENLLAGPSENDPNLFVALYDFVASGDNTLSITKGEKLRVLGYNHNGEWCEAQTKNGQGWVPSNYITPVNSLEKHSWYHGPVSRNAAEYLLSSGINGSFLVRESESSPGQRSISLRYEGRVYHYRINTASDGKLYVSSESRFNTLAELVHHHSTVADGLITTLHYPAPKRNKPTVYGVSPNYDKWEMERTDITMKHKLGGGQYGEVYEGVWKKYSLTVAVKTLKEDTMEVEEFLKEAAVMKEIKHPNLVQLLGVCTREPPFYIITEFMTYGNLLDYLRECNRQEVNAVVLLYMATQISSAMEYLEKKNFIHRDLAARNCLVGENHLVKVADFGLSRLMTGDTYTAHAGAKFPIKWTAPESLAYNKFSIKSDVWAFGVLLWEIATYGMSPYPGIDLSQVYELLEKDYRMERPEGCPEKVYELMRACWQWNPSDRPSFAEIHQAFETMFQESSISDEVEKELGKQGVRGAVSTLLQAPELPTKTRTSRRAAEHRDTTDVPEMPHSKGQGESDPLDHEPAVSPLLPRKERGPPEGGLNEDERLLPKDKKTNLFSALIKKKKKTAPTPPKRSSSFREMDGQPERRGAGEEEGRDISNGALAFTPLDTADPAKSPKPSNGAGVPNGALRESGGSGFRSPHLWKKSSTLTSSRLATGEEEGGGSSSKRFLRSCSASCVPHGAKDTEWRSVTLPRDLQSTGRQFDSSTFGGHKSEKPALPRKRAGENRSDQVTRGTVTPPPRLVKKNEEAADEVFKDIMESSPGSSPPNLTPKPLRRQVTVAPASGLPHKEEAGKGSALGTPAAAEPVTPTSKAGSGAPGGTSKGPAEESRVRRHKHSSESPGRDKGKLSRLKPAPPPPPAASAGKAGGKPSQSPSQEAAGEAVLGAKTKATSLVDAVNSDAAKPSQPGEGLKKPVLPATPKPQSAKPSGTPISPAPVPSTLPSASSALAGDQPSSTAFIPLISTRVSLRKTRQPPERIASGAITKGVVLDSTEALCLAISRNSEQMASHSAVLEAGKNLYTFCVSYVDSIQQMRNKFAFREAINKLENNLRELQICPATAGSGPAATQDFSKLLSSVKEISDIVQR
# Serum stability assay = conditions: 100% human serum, 37 °C
# Experimental: All peptides were tested at a final concentration of 30 μM in 100% human serum. […] Reactions were stopped at the stipulated times and the serum proteins in each sample were denatured and precipitated, followed by centrifugation at 17,000 g for 10 min to separate the serum proteins from peptide samples. […] The elution time for each peptide was determined by the PBS control from 0 time point. The percentage of peptide remaining at each time point was calculated using the height of the serum-treated peptide peak from time 0 as 100% recovery.
# HeLa cells = system: HeLa cells
# Experimental: Since BCR-ABL localizes predominantly in the cytoplasm, it is important to evaluate whether the designed peptides can be internalized into cells.
# Human cervical cancer cells (HeLa) were seeded in 175-cm^2 tissue culture flasks (Falcon), in Dulbecco’s Modified Eagle’s Medium (DMEM) supplemented with 10% fetal bovine serum, 100 U/mL penicillin and […] streptomycin, until 80% confluent.
# Cytotoxicity of the MTAbl peptides towards HeLa cells was evaluated before the cell internalization assay. The mammalian cell cytotoxicity assay was conducted using a method described earlier. HeLa cells were seeded the day before the assay in 96-well tissue culture-treated plates (2.5 × 10^3 cells/well). […] Peptide solutions were diluted 10-fold with serum-free medium and incubated with cells in triplicates for 2 h. […] Following incubation the peptide solutions were removed and aliquots of 10 μL of 0.02% (w/v) sterile resazurin (resazurin sodium salt, Sigma) were added to each well containing 100 μL of fresh medium. […] The absorbance of the plates was measured on a plate reader at 540 and 620 nm.
Compound,percentage of Abl kinase inhibition (Abl kinase),other results
"CC[C@H](C)[C@@H]1NC(=O)[C@H](C)NC(=O)[C@H](CCC(=O)O)NC(=O)CNC(=O)[C@@H]2CSSC[C@@H]3NC(=O)[C@H](CC(=O)O)NC(=O)[C@H](CO)NC(=O)[C@H](CC(=O)O)NC(=O)[C@H](CCCNC(=N)N)NC(=O)[C@H](CCCNC(=N)N)NC(=O)[C@@H]4CSSC[C@H](NC(=O)[C@H]([C@@H](C)CC)NC(=O)[C@H](CSSC[C@H](NC(=O)[C@H](C)NC(=O)[C@H](Cc5ccccc5)NC(=O)[C@@H]5CCCN5C(=O)[C@H](C)NC(=O)[C@H](C)NC(=O)[C@H](Cc5ccc(O)cc5)NC1=O)C(=O)N1CCC[C@H]1C(=O)N[C@@H](CCCCN)C(=O)N[C@@H]([C@@H](C)CC)C(=O)N[C@@H](CC(C)C)C(=O)N[C@@H](CCCCN)C(=O)N[C@@H](CCCCN)C(=O)N4)NC(=O)[C@H](C)NC(=O)CNC(=O)[C@@H]1CCCN1C3=O)C(=O)N[C@@H](CCCNC(=N)N)C(=O)NCC(=O)N[C@@H](CC(N)=O)C(=O)NCC(=O)N[C@@H](Cc1ccc(O)cc1)C(=O)N2 [MTAbl01] (cyclo(AAPFACPKILKKCRRDSDCPGACICRGNGYCGEAIY); disulfide 6-23, 13-25, 19-31)",75%,–
"CC[C@H](C)[C@@H]1NC(=O)[C@H](C)NC(=O)[C@H](CCC(=O)O)NC(=O)CNC(=O)[C@@H]2CSSC[C@@H]3NC(=O)[C@H](CC(=O)O)NC(=O)[C@H](CO)NC(=O)[C@H](CC(=O)O)NC(=O)[C@H](CCCNC(=N)N)NC(=O)[C@H](CCCNC(=N)N)NC(=O)[C@@H]4CSSC[C@H](NC(=O)[C@H]([C@@H](C)CC)NC(=O)[C@H](CSSC[C@H](NC(=O)CNC(=O)[C@H](C)NC(=O)[C@H](Cc5ccccc5)NC(=O)[C@@H]5CCCN5C(=O)[C@H](C)NC(=O)[C@H](C)NC(=O)[C@H](Cc5ccc(O)cc5)NC1=O)C(=O)N1CCC[C@H]1C(=O)N[C@@H](CCCCN)C(=O)N[C@@H]([C@@H](C)CC)C(=O)N[C@@H](CC(C)C)C(=O)N[C@@H](CCCCN)C(=O)N[C@@H](CCCCN)C(=O)N4)NC(=O)[C@H](C)NC(=O)CNC(=O)[C@@H]1CCCN1C3=O)C(=O)N[C@@H](CCCNC(=N)N)C(=O)NCC(=O)N[C@@H](CC(N)=O)C(=O)NCC(=O)N[C@@H](Cc1ccc(O)cc1)C(=O)N2 [MTAbl02] (cyclo(AAPFAGCPKILKKCRRDSDCPGACICRGNGYCGEAIY); disulfide 7-24, 14-26, 20-32)",90%,–
"CC[C@H](C)[C@@H]1NC(=O)[C@H](C)NC(=O)[C@H](CCC(=O)O)NC(=O)[C@@H]2CSSC[C@@H]3NC(=O)[C@H](CC(=O)O)NC(=O)[C@H](CO)NC(=O)[C@H](CC(=O)O)NC(=O)[C@H](CCCNC(=N)N)NC(=O)[C@H](CCCNC(=N)N)NC(=O)[C@@H]4CSSC[C@H](NC(=O)[C@H]([C@@H](C)CC)NC(=O)[C@H](CSSC[C@H](NC(=O)CNC(=O)[C@H](C)NC(=O)[C@H](Cc5ccccc5)NC(=O)[C@@H]5CCCN5C(=O)[C@H](C)NC(=O)[C@H](C)NC(=O)[C@H](Cc5ccc(O)cc5)NC1=O)C(=O)N1CCC[C@H]1C(=O)N[C@@H](CCCCN)C(=O)N[C@@H]([C@@H](C)CC)C(=O)N[C@@H](CC(C)C)C(=O)N[C@@H](CCCCN)C(=O)N[C@@H](CCCCN)C(=O)N4)NC(=O)[C@H](C)NC(=O)CNC(=O)[C@@H]1CCCN1C3=O)C(=O)N[C@@H](CCCNC(=N)N)C(=O)NCC(=O)N[C@@H](CC(N)=O)C(=O)NCC(=O)N[C@@H](Cc1ccc(O)cc1)C(=O)N2 [MTAbl03] (cyclo(AAPFAGCPKILKKCRRDSDCPGACICRGNGYCEAIY); disulfide 7-24, 14-26, 20-32)",50%,–
"CC[C@H](C)[C@@H]1NC(=O)[C@H](C)NC(=O)[C@H](CCC(=O)O)NC(=O)[C@@H]2CSSC[C@@H]3NC(=O)[C@H](CC(=O)O)NC(=O)[C@H](CO)NC(=O)[C@H](CC(=O)O)NC(=O)[C@H](CCCNC(=N)N)NC(=O)[C@H](CCCNC(=N)N)NC(=O)[C@@H]4CSSC[C@H](NC(=O)[C@H]([C@@H](C)CC)NC(=O)[C@H](CSSC[C@H](NC(=O)[C@H](CCCCN)NC(=O)[C@H](C)NC(=O)[C@H](Cc5ccccc5)NC(=O)[C@@H]5CCCN5C(=O)[C@H](C)NC(=O)[C@H](C)NC(=O)[C@H](Cc5ccc(O)cc5)NC1=O)C(=O)N1CCC[C@H]1C(=O)N[C@@H](CCCCN)C(=O)N[C@@H]([C@@H](C)CC)C(=O)N[C@@H](CC(C)C)C(=O)N[C@@H](CCCCN)C(=O)N[C@@H](CCCCN)C(=O)N4)NC(=O)[C@H](C)NC(=O)CNC(=O)[C@@H]1CCCN1C3=O)C(=O)N[C@@H](CCCNC(=N)N)C(=O)NCC(=O)N[C@@H](CC(N)=O)C(=O)NCC(=O)N[C@@H](Cc1ccc(O)cc1)C(=O)N2 [MTAbl04] (cyclo(AAPFAKCPKILKKCRRDSDCPGACICRGNGYCEAIY); disulfide 7-24, 14-26, 20-32)",~ 50%,–
"CC[C@H](C)[C@@H]1NC(=O)[C@H](C)NC(=O)[C@H](CCC(=O)O)NC(=O)CNC(=O)[C@@H]2CSSC[C@@H]3NC(=O)[C@H](CC(=O)O)NC(=O)[C@H](CO)NC(=O)[C@H](CC(=O)O)NC(=O)[C@H](CCCNC(=N)N)NC(=O)[C@H](CCCNC(=N)N)NC(=O)[C@@H]4CSSC[C@H](NC(=O)[C@H]([C@@H](C)CC)NC(=O)[C@H](CSSC[C@H](NC(=O)[C@H](CCCCN)NC(=O)[C@H](C)NC(=O)[C@H](Cc5ccccc5)NC(=O)[C@@H]5CCCN5C(=O)[C@H](C)NC(=O)[C@H](C)NC(=O)[C@H](Cc5ccc(O)cc5)NC1=O)C(=O)N1CCC[C@H]1C(=O)N[C@@H](CCCCN)C(=O)N[C@@H]([C@@H](C)CC)C(=O)N[C@@H](CC(C)C)C(=O)N[C@@H](CCCCN)C(=O)N[C@@H](CCCCN)C(=O)N4)NC(=O)[C@H](C)NC(=O)CNC(=O)[C@@H]1CCCN1C3=O)C(=O)N[C@@H](CCCNC(=N)N)C(=O)NCC(=O)N[C@@H](CC(N)=O)C(=O)NCC(=O)N[C@@H](Cc1ccc(O)cc1)C(=O)N2 [MTAbl05] (cyclo(AAPFAKCPKILKKCRRDSDCPGACICRGNGYCGEAIY); disulfide 7-24, 14-26, 20-32)",~ 90%,–
"CC[C@H](C)[C@@H]1NC(=O)[C@H](C)NC(=O)[C@H](CCC(=O)O)NC(=O)CNC(=O)[C@@H]2CSSC[C@@H]3NC(=O)[C@H](CC(=O)O)NC(=O)[C@H](CO)NC(=O)[C@H](CC(=O)O)NC(=O)[C@H](CCCNC(=N)N)NC(=O)[C@H](CCCNC(=N)N)NC(=O)[C@@H]4CSSC[C@H](NC(=O)[C@H]([C@@H](C)CC)NC(=O)[C@H](CSSC[C@H](NC(=O)[C@H](CCCNC(=N)N)NC(=O)[C@H](C)NC(=O)[C@H](Cc5ccccc5)NC(=O)[C@@H]5CCCN5C(=O)[C@H](C)NC(=O)[C@H](C)NC(=O)[C@H](Cc5ccc(OP(=O)(O)O)cc5)NC1=O)C(=O)N1CCC[C@H]1C(=O)N[C@@H](CCCCN)C(=O)N[C@@H]([C@@H](C)CC)C(=O)N[C@@H](CC(C)C)C(=O)N[C@@H](CCCCN)C(=O)N[C@@H](CCCCN)C(=O)N4)NC(=O)[C@H](C)NC(=O)CNC(=O)[C@@H]1CCCN1C3=O)C(=O)N[C@@H](CCCNC(=N)N)C(=O)NCC(=O)N[C@@H](CC(N)=O)C(=O)NCC(=O)N[C@@H](Cc1ccc(O)cc1)C(=O)N2 [MTAbl12] (cyclo(AAPFARCPKILKKCRRDSDCPGACICRGNGYCGEAI[pY]); disulfide 7-24, 14-26, 20-32)",–,"stability in human serum (in words; comparison to MCoTI-II at 24 h) (Serum stability assay; 24 h, one-way ANOVA, three replicates): lower stability"
"CC[C@H](C)[C@@H]1NC(=O)[C@H](C)NC(=O)[C@H](CCC(=O)O)NC(=O)CNC(=O)[C@@H]2CSSC[C@@H]3NC(=O)[C@H](CC(=O)O)NC(=O)[C@H](CO)NC(=O)[C@H](CC(=O)O)NC(=O)[C@H](CCCNC(=N)N)NC(=O)[C@H](CCCNC(=N)N)NC(=O)[C@@H]4CSSC[C@H](NC(=O)[C@H]([C@@H](C)CC)NC(=O)[C@H](CSSC[C@H](NC(=O)[C@H](CCCNC(=N)N)NC(=O)[C@H](CCCNC(=N)N)NC(=O)[C@H](CCCNC(=N)N)NC(=O)[C@H](C)NC(=O)[C@H](Cc5ccccc5)NC(=O)[C@@H]5CCCN5C(=O)[C@H](C)NC(=O)[C@H](C)NC(=O)[C@H](Cc5ccc(O)cc5)NC1=O)C(=O)N1CCC[C@H]1C(=O)N[C@@H](CCCNC(=N)N)C(=O)N[C@@H]([C@@H](C)CC)C(=O)N[C@@H](CC(C)C)C(=O)N[C@@H](CCCNC(=N)N)C(=O)N[C@@H](CCCCN)C(=O)N4)NC(=O)[C@H](C)NC(=O)CNC(=O)[C@@H]1CCCN1C3=O)C(=O)N[C@@H](CCCNC(=N)N)C(=O)NCC(=O)N[C@@H](CC(N)=O)C(=O)NCC(=O)N[C@@H](Cc1ccc(O)cc1)C(=O)N2 [MTAbl15] (cyclo(AAPFARRRCPRILRKCRRDSDCPGACICRGNGYCGEAIY); disulfide 9-26, 16-28, 22-34)",–,concentration up to which no cytotoxicity towards HeLa cells (HeLa cells): > 64 µM
"EAIYAAPFAKKK [abltide, reference compound]",–,"time to complete degradation in human serum (Serum stability assay; 30 μM peptide, RP-HPLC): ≤ 1 h"
